Measurements: ChEMBL document CHEMBL3856232, “Synthesis and biological evaluation of novel 2-imino-4-thiazolidinone derivatives as potent anti-cancer agents” (Bioorg Med Chem Lett, 2016)
Calls of active or inactive are those of the source. The calls are words filed in the database; no cut-off is given here.

Assays:
A549 = assay: (§1) Cytotoxicity against human A549 cells assessed as reduction in cell viability after 48 hrs by MTT assay; format: functional, cell-based
B16-F10 [1] = assay: (§2) Cytotoxicity against mouse B16F10 cells assessed as reduction in cell viability after 48 hrs by MTT assay; format: functional, cell-based
[2] = as §1; format: functional, cell-based; conditions: A549, 48 h
B16-F10 [3] = assay: Induction of apoptosis in mouse B16F10 cells assessed as DNA damage at 50 uM after 24 hrs by propidium iodide/Hoechst staining based FACS analysis; format: functional, cell-based
[4] = as §2; format: functional, cell-based; conditions: B16-F10, 48 h
[5] = Cytotoxicity against CHO cells assessed as reduction in cell viability up to 100 uM after 48 hrs by MTT assay; format: toxicity, cell-based, Cricetulus griseus; conditions: chinese hamster
[6] = Cell cycle arrest in mouse B16F10 cells assessed as accumulation in sub G0/G1 phase at 50 uM after 24 hrs by propidium iodide staining based FACS analysis; format: functional; conditions: B16-F10
[7] = Cell cycle arrest in mouse B16F10 cells assessed as decrease in G0/G1 phase at 50 uM after 24 hrs by propidium iodide staining based FACS analysis; format: functional; conditions: B16-F10
PANC-1 = assay: Cytotoxicity against human PANC1 cells assessed as reduction in cell viability up to 100 uM after 48 hrs by MTT assay; format: functional, cell-based
[8] = Cytotoxicity against CHO cells assessed as reduction in cell viability at 50 to 100 uM after 48 hrs by MTT assay; format: toxicity, cell-based, Cricetulus griseus; conditions: chinese hamster
[9] = Cytotoxicity against CHO cells assessed as reduction in cell viability up to 10 uM after 48 hrs by MTT assay; format: toxicity, cell-based, Cricetulus griseus; conditions: chinese hamster
B16-F10 [10] = assay: Induction of intracellular hydrogen peroxide accumulation in mouse B16F10 cells at 50 uM after 24 hrs by DCF-DA staining based fluorescence microscopic analysis; format: functional, cell-based
[11] = Cell cycle arrest in mouse B16F10 cells assessed as accumulation in G2/M phase at 50 uM after 24 hrs by propidium iodide staining based FACS analysis; format: functional; conditions: B16-F10
B16-F10 [12] = assay: Induction of intracellular superoxide radical accumulation in mouse B16F10 cells at 50 uM by dihydroethidium staining based fluorescence microscopic analysis; format: functional, cell-based
[13] = Cytotoxicity against human A549 cells assessed as inhibition of cell viability at 4 uM after 48 hrs by MTT assay relative to control; format: functional; conditions: A549, 48 h
[14] = Cytotoxicity against mouse B16F10 cells assessed as inhibition of cell viability at 4 uM after 48 hrs by MTT assay relative to control; format: functional; conditions: B16-F10, 48 h

COc1ccccc1N1CCN(CC(=O)Nc2ccc(/N=C3\SCC(=O)N3Cc3ccco3)cc2)CC1
Activity (A549): Active
Activity (B16-F10 [1]): Active

O=C(CN1CCN(C(=O)c2ccccc2)CC1)Nc1ccc(/N=C2\SCC(=O)N2Cc2cccs2)cc1
IC50 [2]: 10 µM

O=C(CN1CCN(c2ccc(F)cc2)CC1)Nc1ccc(/N=C2\SCC(=O)N2Cc2cccs2)cc1
Activity (A549): Active
Activity (B16-F10 [1]): Active

O=C(CN1CCSCC1)Nc1ccc(/N=C2\SCC(=O)N2Cc2cccs2)cc1
IC50 [2]: 10 µM

O=C(CN1CCCCC1)Nc1ccc(/N=C2\SCC(=O)N2Cc2cccs2)cc1
Activity (A549): Active
Activity (B16-F10 [1]): Active

O=C(CN1CCSCC1)Nc1ccc(/N=C2\SCC(=O)N2Cc2ccco2)cc1
Activity (A549): Active
Activity (B16-F10 [1]): Active

O=C(CN1CCCC1)Nc1ccc(/N=C2\SCC(=O)N2Cc2cccs2)cc1
Activity (B16-F10 [3]): Active
IC50 [4]: 5.4 µM
Activity [5]: Non-Toxic
Activity [6]: Active
Activity [7]: Active

O=C(CN1CCN(c2ccccn2)CC1)Nc1ccc(/N=C2\SCC(=O)N2Cc2cccs2)cc1
Activity (A549): Active
Activity (B16-F10 [1]): Active

O=C(CN1CCOCC1)Nc1ccc(/N=C2\SCC(=O)N2Cc2cccs2)cc1
IC50 [2]: 12.6 µM

O=C(CN1CCCC1)Nc1ccc(/N=C2\SCC(=O)N2Cc2ccco2)cc1
Activity (A549): Active
Activity (B16-F10 [1]): Active

CCN(CC)CC(=O)Nc1ccc(/N=C2\SCC(=O)N2Cc2cccs2)cc1
Activity (B16-F10 [3]): Active
IC50 [2]: 12.5 µM
IC50 [4]: 7 µM
Activity [5]: Non-Toxic
Activity [6]: Active
Activity [7]: Active

CCNCC(=O)Nc1ccc(/N=C2\SCC(=O)N2Cc2cccs2)cc1
IC50 [2]: 12.6 µM
IC50 [4]: 11.6 µM
Activity (PANC-1): Active

CCCNCC(=O)Nc1ccc(/N=C2\SCC(=O)N2Cc2cccs2)cc1
Activity [8]: Toxic
Activity [9]: Non-Toxic
Activity (B16-F10 [3]): Active
IC50 [4]: 3.4 µM
Activity (B16-F10 [10]): Active
Activity [11]: Active
Activity (B16-F10 [12]): Active

CCN(CC)CC(=O)Nc1ccc(/N=C2\SCC(=O)N2Cc2ccco2)cc1
Activity (A549): Active
Activity (B16-F10 [1]): Active

COc1cccc2c1C(=O)c1c(O)c3c(c(O)c1C2=O)C[C@@](O)(C(=O)CO)C[C@@H]3O[C@H]1C[C@H](N)[C@H](O)[C@H](C)O1 [DOXORUBICIN]
inhibition at 4 µM [13]: 28%
inhibition at 4 µM [14]: 40.9%

CN1CCN(CC(=O)Nc2ccc(/N=C3\SCC(=O)N3Cc3cccs3)cc2)CC1
Activity (A549): Active
Activity (B16-F10 [1]): Active

N#Cc1ccccc1N1CCN(CC(=O)Nc2ccc(/N=C3\SCC(=O)N3Cc3ccco3)cc2)CC1
Activity (A549): Active
Activity (B16-F10 [1]): Active

CN(C)CC(=O)Nc1ccc(/N=C2\SCC(=O)N2Cc2cccs2)cc1
Activity (A549): Active
Activity (B16-F10 [1]): Active

O=C(CN1CCOCC1)Nc1ccc(/N=C2\SCC(=O)N2Cc2ccco2)cc1
Activity (A549): Active
Activity (B16-F10 [1]): Active

CN(C)CC(=O)Nc1ccc(/N=C2\SCC(=O)N2Cc2ccco2)cc1
Activity (A549): Active
Activity (B16-F10 [1]): Active

O=C(CN1CCCCC1)Nc1ccc(/N=C2\SCC(=O)N2Cc2ccco2)cc1
Activity (A549): Active
Activity (B16-F10 [1]): Active
